# Experimental data from patent US20230085307A1, “PYRIDAZINONE COMPOUND AND HERBICIDE” (NISSAN CHEMICAL CORPORATION, priority 2019, published 2023).
# Tests used:
# lambsquarters [1] = test: Test Example 5: herbicidal effect by foliage application, plastic box (Table 20, symbol O); type: in vivo, lambsquarters (Chenopodium album); details: foliage application
# Method in brief: (§1)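 Plants sown in sterilized diluvial soil and grown 14 days in a greenhouse at 25° C to 30° C, then sprayed on the foliage with the compound's emulsion diluted in water to a predetermined herbicide amount. Injury to weeds and crops scored three weeks after application on a visual rating scale.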
# Italian ryegrass [2] = test: Test Example 4: herbicidal effect by soil treatment (Table 19, symbol K); type: in vivo, Italian ryegrass (Lolium multiflorum); details: amount of applied herbicide 320 g/ha
# Method in brief: (§2)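 Seeds were sown in sterilized diluvial soil and covered with about 1.5 cm of soil. An emulsion formulation diluted with water to a predetermined herbicide amount was sprayed evenly onto the soil surface. Plants grew in a greenhouse at 25° C. to 30° C., and the effect was scored three weeks after application using criteria from an earlier test.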
# wild oat [3] = test: Test Example 4: herbicidal effect by soil treatment (Table 19, symbol I); type: in vivo, wild oat (Avena fatua); details: amount of applied herbicide 320 g/ha
# Method in brief: as §2
# late watergrass = test: Test Example 1: herbicidal activity, application before weed generation under submerged conditions (Table 16, symbol A); type: in vivo, late watergrass (Echinochloa oryzicola)
# Method in brief: (§3)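 Alluvial soil was flooded to 4 cm depth, weed seeds were sown mixed and 2.5-leaf rice seedlings were transplanted. On sowing day, the compound's emulsion, diluted in water to a set dose, was applied to the water surface. Plants grew at 25–30 °C and were scored 0–5 after three weeks.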
# lambsquarters [4] = test: Test Example 4: herbicidal effect by soil treatment (Table 19, symbol O); type: in vivo, lambsquarters (Chenopodium album); details: amount of applied herbicide 320 g/ha
# Method in brief: as §2
# false cleavers = test: Test Example 4: herbicidal effect by soil treatment (Table 19, symbol Q); type: in vivo, false cleavers (Galium spurium); details: amount of applied herbicide 320 g/ha
# Method in brief: as §2
# redroot pigweed [5] = test: Test Example 4: herbicidal effect by soil treatment (Table 19, symbol N); type: in vivo, redroot pigweed (Amaranthus retroflexus); details: amount of applied herbicide 320 g/ha
# Method in brief: as §2
# oval-leafed pondweed = test: Test Example 1: herbicidal activity, application before weed generation under submerged conditions (Table 16, symbol C); type: in vivo, oval-leafed pondweed (Monochoria vaginalis)
# Method in brief: as §3
# Italian ryegrass [6] = test: Test Example 5: herbicidal effect by foliage application, plastic box (Table 20, symbol K); type: in vivo, Italian ryegrass (Lolium multiflorum); details: foliage application
# Method in brief: as §1
# barnyard grass [7] = test: Test Example 4: herbicidal effect by soil treatment (Table 19, symbol H); type: in vivo, barnyard grass (Echinochloa crus-galli); details: amount of applied herbicide 320 g/ha
# Method in brief: as §2
# persian speedwell [8] = test: Test Example 4: herbicidal effect by soil treatment (Table 19, symbol R); type: in vivo, Persian speedwell (Veronica persica); details: amount of applied herbicide 320 g/ha
# Method in brief: as §2
# velvetleaf [9] = test: Test Example 4: herbicidal effect by soil treatment (Table 19, symbol M); type: in vivo, velvetleaf (Abutilon theophrasti); details: amount of applied herbicide 320 g/ha
# Method in brief: as §2
# green foxtail [10] = test: Test Example 4: herbicidal effect by soil treatment (Table 19, symbol G); type: in vivo, green foxtail (Setaria viridis); details: amount of applied herbicide 320 g/ha
# Method in brief: as §2
# persian speedwell [11] = test: Test Example 5: herbicidal effect by foliage application, plastic box (Table 20, symbol R); type: in vivo, Persian speedwell (Veronica persica); details: foliage application
# Method in brief: as §1
# barnyard grass [12] = test: Test Example 5: herbicidal effect by foliage application, plastic box (Table 20, symbol H); type: in vivo, barnyard grass (Echinochloa crus-galli); details: foliage application
# Method in brief: as §1
# rice flat sedge = test: Test Example 3: herbicidal effect by foliage application, Wagner pot (Table 18, symbol E); type: in vivo, rice flat sedge (Cyperus iria); details: amount of applied herbicide 320 g/ha
# Method in brief: (§4)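 Plants were sown in alluvial soil held under 0.1–0.5 cm standing water and grown 14 days in a greenhouse at 25–30 °C. An emulsifiable formulation, water-diluted to the set dose, was then sprayed onto the foliage, and effects were scored three weeks later using previously defined criteria.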
# windgrass [13] = test: Test Example 5: herbicidal effect by foliage application, plastic box (Table 20, symbol L); type: in vivo, windgrass (Apera spica-venti); details: foliage application
# Method in brief: as §1
# velvetleaf [14] = test: Test Example 5: herbicidal effect by foliage application, plastic box (Table 20, symbol M); type: in vivo, velvetleaf (Abutilon theophrasti); details: foliage application
# Method in brief: as §1
# blackgrass [15] = test: Test Example 4: herbicidal effect by soil treatment (Table 19, symbol J); type: in vivo, blackgrass (Alopecurus myosuroides); details: amount of applied herbicide 320 g/ha
# Method in brief: as §2
# blackgrass [16] = test: Test Example 5: herbicidal effect by foliage application, plastic box (Table 20, symbol J); type: in vivo, blackgrass (Alopecurus myosuroides); details: foliage application
# Method in brief: as §1
# Chinese sprangletop = test: Test Example 3: herbicidal effect by foliage application, Wagner pot (Table 18, symbol D); type: in vivo, chinese sprangletop (Leptochloa chinensis); details: amount of applied herbicide 320 g/ha
# Method in brief: as §4
# windgrass [17] = test: Test Example 4: herbicidal effect by soil treatment (Table 19, symbol L); type: in vivo, windgrass (Apera spica-venti); details: amount of applied herbicide 320 g/ha
# Method in brief: as §2
# southern crabgrass [18] = test: Test Example 4: herbicidal effect by soil treatment (Table 19, symbol F); type: in vivo, southern crabgrass (Digitaria ciliaris); details: amount of applied herbicide 320 g/ha
# Method in brief: as §2
# redroot pigweed [19] = test: Test Example 5: herbicidal effect by foliage application, plastic box (Table 20, symbol N); type: in vivo, redroot pigweed (Amaranthus retroflexus); details: foliage application
# Method in brief: as §1
# Japanese bulrush = test: Test Example 1: herbicidal activity, application before weed generation under submerged conditions (Table 16, symbol B); type: in vivo, Japanese bulrush (Schoenoplectus juncoides)
# Method in brief: as §3
# wild oat [20] = test: Test Example 5: herbicidal effect by foliage application, plastic box (Table 20, symbol I); type: in vivo, wild oat (Avena fatua); details: foliage application
# Method in brief: as §1
# barnyard grass [21] = test: Test Example 3: herbicidal effect by foliage application, Wagner pot (Table 18, symbol H); type: in vivo, barnyard grass (Echinochloa crus-galli); details: amount of applied herbicide 320 g/ha
# Method in brief: as §4
# chickweed = test: Test Example 5: herbicidal effect by foliage application, plastic box (Table 20, symbol P); type: in vivo, common chickweed (Stellaria media); details: foliage application
# Method in brief: as §1
# green foxtail [22] = test: Test Example 5: herbicidal effect by foliage application, plastic box (Table 20, symbol G); type: in vivo, green foxtail (Setaria viridis); details: foliage application
# Method in brief: as §1
# southern crabgrass [23] = test: Test Example 5: herbicidal effect by foliage application, plastic box (Table 20, symbol F); type: in vivo, southern crabgrass (Digitaria ciliaris); details: foliage application
# Method in brief: as §1
# [24] = AAH 320 g/ha, evaluated three weeks after application
# [25] = 320 g/ha, three weeks after application
# [26] = amount of applied herbicide 320 g/ha
compound,measurement,setting,value
Cc1nn(C)c(=O)c(-c2c(-c3cccc(OCc4ccccc4)c3)sc3ccc(F)cc23)c1O [2-267],"O: lambsquarters, herbicidal effect (criteria 0-5)",lambsquarters [1]; [24],4 (Herbicidal rate of 70% or more and less than 90%)
same,herbicidal effect on K: Italian ryegrass,Italian ryegrass [2],0 (Herbicidal rate of 5% or less (almost no effect))
same,herbicidal effect on I: wild oat,wild oat [3],0 (Herbicidal rate of 5% or less (almost no effect))
same,Herbicidal effect on A: late watergrass (grade 0-5),late watergrass; 320 g/ha applied herbicide,2 (Herbicidal rate of 20% or more and less than 40%)
same,herbicidal effect on O: lambsquarters,lambsquarters [4],0 (Herbicidal rate of 5% or less (almost no effect))
same,herbicidal effect on Q: false cleavers,false cleavers,0 (Herbicidal rate of 5% or less (almost no effect))
same,herbicidal effect on N: redroot pigweed,redroot pigweed [5],2 (Herbicidal rate of 20% or more and less than 40%)
same,Herbicidal effect on C: oval-leafed pondweed (grade 0-5),oval-leafed pondweed; 320 g/ha applied herbicide,0 (Herbicidal rate of 5% or less (almost no effect))
same,"K: Italian ryegrass, herbicidal effect (criteria 0-5)",Italian ryegrass [6]; [24],3 (Herbicidal rate of 40% or more and less than 70%)
same,herbicidal effect on H: barnyard grass,barnyard grass [7],5 (Herbicidal rate of 90% or more (almost completely withered))
same,herbicidal effect on R: persian speedwell,persian speedwell [8],4 (Herbicidal rate of 70% or more and less than 90%)
same,herbicidal effect on M: velvetleaf,velvetleaf [9],0 (Herbicidal rate of 5% or less (almost no effect))
same,herbicidal effect on G: green foxtail,green foxtail [10],3 (Herbicidal rate of 40% or more and less than 70%)
same,"R: persian speedwell, herbicidal effect (criteria 0-5)",persian speedwell [11]; [24],5 (Herbicidal rate of 90% or more (almost completely withered))
same,"H: barnyard grass, herbicidal effect (criteria 0-5)",barnyard grass [12]; [24],5 (Herbicidal rate of 90% or more (almost completely withered))
same,herbicidal effect on E: rice flat sedge,rice flat sedge,3 (Herbicidal rate of 40% or more and less than 70%)
same,"L: windgrass, herbicidal effect (criteria 0-5)",windgrass [13]; [24],0 (Herbicidal rate of 5% or less (almost no effect))
same,"M: velvetleaf, herbicidal effect (criteria 0-5)",velvetleaf [14]; [24],3 (Herbicidal rate of 40% or more and less than 70%)
same,herbicidal effect on J: blackgrass,blackgrass [15],0 (Herbicidal rate of 5% or less (almost no effect))
same,"J: blackgrass, herbicidal effect (criteria 0-5)",blackgrass [16]; [24],2 (Herbicidal rate of 20% or more and less than 40%)
same,herbicidal effect on D: Chinese sprangletop,Chinese sprangletop,5 (Herbicidal rate of 90% or more (almost completely withered))
same,herbicidal effect on L: windgrass,windgrass [17],0 (Herbicidal rate of 5% or less (almost no effect))
same,herbicidal effect on F: southern crabgrass,southern crabgrass [18],5 (Herbicidal rate of 90% or more (almost completely withered))
same,"N: redroot pigweed, herbicidal effect (criteria 0-5)",redroot pigweed [19]; [24],4 (Herbicidal rate of 70% or more and less than 90%)
same,Herbicidal effect on B: Japanese bulrush (grade 0-5),Japanese bulrush; 320 g/ha applied herbicide,0 (Herbicidal rate of 5% or less (almost no effect))
same,"I: wild oat, herbicidal effect (criteria 0-5)",wild oat [20]; [24],0 (Herbicidal rate of 5% or less (almost no effect))
same,herbicidal effect on H: barnyard grass,barnyard grass [21],5 (Herbicidal rate of 90% or more (almost completely withered))
same,"P: chickweed, herbicidal effect (criteria 0-5)",chickweed; [24],5 (Herbicidal rate of 90% or more (almost completely withered))
same,"G: green foxtail, herbicidal effect (criteria 0-5)",green foxtail [22]; [24],5 (Herbicidal rate of 90% or more (almost completely withered))
same,"F: southern crabgrass, herbicidal effect (criteria 0-5)",southern crabgrass [23]; [24],4 (Herbicidal rate of 70% or more and less than 90%)
Cc1nn(CC#N)c(=O)c(-c2c(-c3ccc(F)cc3)sc3ccc(F)cc23)c1O [2-430],"O: lambsquarters, herbicidal effect grade",lambsquarters [1]; [25],3 (Herbicidal rate of 40% or more and less than 70%)
same,"herbicidal effect, K: Italian ryegrass",Italian ryegrass [2],0 (Herbicidal rate of 5% or less (almost no effect))
same,"herbicidal effect, I: wild oat",wild oat [3],0 (Herbicidal rate of 5% or less (almost no effect))
same,"Herbicidal effect, A: late watergrass",late watergrass; [26],3 (Herbicidal rate of 40% or more and less than 70%)
same,"herbicidal effect, O: lambsquarters",lambsquarters [4],1 (Herbicidal rate of 5% or more and less than 20%)
same,"herbicidal effect, Q: false cleavers",false cleavers,0 (Herbicidal rate of 5% or less (almost no effect))
same,"herbicidal effect, N: redroot pigweed",redroot pigweed [5],5 (Herbicidal rate of 90% or more (almost completely withered))
same,"Herbicidal effect, C: oval-leafed pondweed",oval-leafed pondweed; [26],0 (Herbicidal rate of 5% or less (almost no effect))
same,"K: Italian ryegrass, herbicidal effect grade",Italian ryegrass [6]; [25],3 (Herbicidal rate of 40% or more and less than 70%)
same,"herbicidal effect, H: barnyard grass",barnyard grass [7],0 (Herbicidal rate of 5% or less (almost no effect))
same,"herbicidal effect, R: persian speedwell",persian speedwell [8],0 (Herbicidal rate of 5% or less (almost no effect))
same,"herbicidal effect, M: velvetleaf",velvetleaf [9],2 (Herbicidal rate of 20% or more and less than 40%)
same,"herbicidal effect, G: green foxtail",green foxtail [10],0 (Herbicidal rate of 5% or less (almost no effect))
same,"R: persian speedwell, herbicidal effect grade",persian speedwell [11]; [25],4 (Herbicidal rate of 70% or more and less than 90%)
same,"H: barnyard grass, herbicidal effect grade",barnyard grass [12]; [25],1 (Herbicidal rate of 5% or more and less than 20%)
same,herbicidal effect on E: rice flat sedge,rice flat sedge,3 (Herbicidal rate of 40% or more and less than 70%)
same,"L: windgrass, herbicidal effect grade",windgrass [13]; [25],0 (Herbicidal rate of 5% or less (almost no effect))
same,"M: velvetleaf, herbicidal effect grade",velvetleaf [14]; [25],2 (Herbicidal rate of 20% or more and less than 40%)
same,"herbicidal effect, J: blackgrass",blackgrass [15],0 (Herbicidal rate of 5% or less (almost no effect))
same,"J: blackgrass, herbicidal effect grade",blackgrass [16]; [25],0 (Herbicidal rate of 5% or less (almost no effect))
same,herbicidal effect on D: Chinese sprangletop,Chinese sprangletop,0 (Herbicidal rate of 5% or less (almost no effect))
same,"herbicidal effect, L: windgrass",windgrass [17],0 (Herbicidal rate of 5% or less (almost no effect))
same,"herbicidal effect, F: southern crabgrass",southern crabgrass [18],0 (Herbicidal rate of 5% or less (almost no effect))
same,"N: redroot pigweed, herbicidal effect grade",redroot pigweed [19]; [25],3 (Herbicidal rate of 40% or more and less than 70%)
same,"Herbicidal effect, B: Japanese bulrush",Japanese bulrush; [26],0 (Herbicidal rate of 5% or less (almost no effect))
same,"I: wild oat, herbicidal effect grade",wild oat [20]; [25],0 (Herbicidal rate of 5% or less (almost no effect))
same,herbicidal effect on H: barnyard grass,barnyard grass [21],2 (Herbicidal rate of 20% or more and less than 40%)
same,"P: chickweed, herbicidal effect grade",chickweed; [25],5 (Herbicidal rate of 90% or more (almost completely withered))
same,"G: green foxtail, herbicidal effect grade",green foxtail [22]; [25],2 (Herbicidal rate of 20% or more and less than 40%)
same,"F: southern crabgrass, herbicidal effect grade",southern crabgrass [23]; [25],0 (Herbicidal rate of 5% or less (almost no effect))
